# Reference: US20180098969A1, “HODGKIN LYMPHOMA THERAPY” (Purdue Pharmaceutical Products L.P., priority 2016, published 2018)
# Experiments:
# L540 cell line [1] = experiment: Clonogenic survival in methylcellulose; assay type: cell-based, human; settings: any dose (0.1 to 20 μmol)
# Protocol: (§1) In all examples, the human Hodgkin lymphoma-derived cell lines L428, L428-c, KMH2, L591, L540, L1236, HDLM2 and SUP-HD were obtained from Dr Steffen Junker (Aarhus University Denmark). All cell lines were cultured in Gibco RPMI 1640 medium supplemented with Glutamax, 10% FBS and antibiotics at 37° C. […] The immunophenotype, P53 status and MSI characterization of the Hodgkin lymphoma cell lines was determined using anti-CD30, CD15, CD20 and CD14 antibodies.
# (§2) This test was performed on four Hodgkin lymphoma cell lines (L428, L428s, KMH2 and L540). Each was cultured with EDO-S101 at doses of 0, 0.1, 0.5, 1, 10 and 20 μmol in DMSO. The cell lines were cultured in methylcellulose (Stem cell Technologies) at a concentration of 10^5/ml at 37° C. and 5% CO2. The surviving fraction was determined by measuring the viability of colonies generated before and after exposure. Only colonies with more than 50 cells were counted. Each data point represents the average and SD from three independent experiments performed in triplicate.
# L428 = experiment: Clonogenic survival in methylcellulose; assay type: cell-based, human; settings: very low doses 0.1 and 0.5 μmol
# Protocol: as §1, §2
# KMH2 cell line [2] = experiment: Clonogenic survival in methylcellulose; assay type: cell-based, human; settings: lowest doses 0.1 and 0.5 μmol
# Protocol: as §1, §2
# L428s = experiment: Clonogenic survival in methylcellulose; assay type: cell-based, human; settings: very low doses 0.1 and 0.5 μmol
# Protocol: as §1, §2
# L1236 cell line = experiment: Cell cycle checkpoint proteins and gene expression; assay type: cell-based, human; settings: EDO-S101 alone
# Protocol: 1.56 μM of EDO-S101 was administered to two Hodgkin lymphoma cell lines, the bendamustine naïve cell line L1236 and the bendamustine resistant cell line R100. In a second experiment, Brentuximab Vedotin was administered at a concentration of 3.12 μg/ml to the L1236 cell line and at a concentration of 0.39 μg/ml to the R100 cell line. Finally, in a third experiment EDO-S101 and Brentuximab Vedotin were administered in combination to each of the two cell lines at the same concentrations that they were administered in the monotherapy experiments.
# [3] = Weight of xenografted mice; assay type: in vivo, NSG mice
# Protocol: Two independent experiments were performed to investigate the dose-effect of EDO-S101 in NSG mice eight weeks after xenografting with L428 cells as in Example 8. The aim of the protocol shown in FIG. 8B was to evaluate the effect of sequential treatment with a moderate dose of 60 mg/kg given at an interval of three weeks.
# This weight loss was also observed in mice treated with the vehicle. In contrast, the weight of the control mice receiving only freshly prepared phosphate buffered saline (PBS) buffered to 7.3-7.4 increased up to 11 weeks and then started to decrease.
# The toxicity of the dose of 80 mg/kg compared to 60 mg/kg was investigated, as compared to the control groups vehicle and PBS.
# L540 cell line [4] = experiment: Mitotic index and chromosomal aberrations; assay type: cell-based, human
# Protocol: (§3) The mitotic index and chromosomal aberrations for each of the cell lines were evaluated after treatment with either 20 μmol or 10 μmol EDO-S101 in DMSO. Each cell line was cultured at 37° C. in the presence of RPMI 1640 supplemented with 10% FCS and antibiotics. Colcemid (0.1 ug/ml) was added 2 h before harvesting and slides with chromosomes in metaphase were prepared following the standard methanol/acetic acid (3/1, v/v) procedure. The slides were stored at −20° C. until use.
# (§4) FISH was performed using a combination of standard procedures from the recommended protocols for chromosome analysis, following telomere and centromere staining, using PNA probes. In all, 100 metaphases were scored per in vitro dose exposure.
# (§5) The mitotic index was determined by measurement of the sum of all cells in prophase, metaphase, anaphase and telophase divided by the total number of cells.
# KMH2 cell line [5] = experiment: Mitotic index and chromosomal aberrations; assay type: cell-based, human
# Protocol: as §3, §4, §5
# [6] = system: Hodgkin lymphoma cell lines; experiment: Mitotic index and chromosomal aberrations; assay type: cell-based, human
# Protocol: as §3, §4, §5
structure (smiles),measurement,setting,value
Cn1c(CCCCCCC(=O)NO)nc2cc(N(CCCl)CCCl)ccc21 [EDO-S101],clones observed,L540 cell line [1],No clone was observed
same,clones observed,L428,only macrophagic clones being observed
same,clones observed,KMH2 cell line [2],only a few clones
same,clones observed,L428s,only macrophagic clones being observed
same,effect on cell cycle checkpoint proteins,L1236 cell line,activated cell cycle checkpoint proteins
same,difference between weight losses,[3]; 60 mg/kg versus 80 mg/kg,no significant difference
same,weight of the mice or the different organs,"[3]; mouse, in vivo",No significant difference
same,weight of the mice,[3]; two doses of 60 mg/kg three weeks apart,weight loss following each administration which was regained after several weeks
same,mitotic index,L540 cell line [4],very low mitotic index
same,mitotic index,KMH2 cell line [5],very low mitotic index
same,chromosomal aberrations in metaphase,KMH2 cell line [5]; telomere and centromere staining,numerous chromosomal aberrations
same,metaphases observed,[6]; 10 μmol,only a few metaphases of poor quality
same,metaphases observed,"[6]; 20 μmol, any cell line",No metaphases were observed
same,sensitivity in mitotic index assay,"[6]; all cell lines, 24 h of treatment",remarkably high sensitivity
